Patent publication US8420630B2 (Boehringer Ingelheim Pharma GmbH & Co. KG, priority 2001, dated 2013)

These compounds were tested against T1, CDK1/cyclinB1 (Homo sapiens, UniProt P06493) (assay: Cyclin B1-CDK1 kinase inhibition test). Conditions: CDK1 tests (Example 13); recombinant cyclin B1/CDK1, substrate histone H1; read-out: CDK1/cyclinB1 IC50 value.
T1 construct: made in house; host or cells: High Five insect cells (Trichoplusia ni), baculovirus coinfection
Assay type: biochemical
Experimental: CDK4) were cloned by standard methods using RT-PCR, and cloned into a transfer vector (cyclin in pAcG2T made by Pharmingen, CDKs in p2Bac made by Invitrogen) for the baculovirus system. […] After thawing the cells were resuspended in lysing buffer (50 mM HEPES pH 7.5, 10 mM MgCl2, 1 mM DTT, 5 μg/ml leupeptin, 5 μg/ml aprotinin, 100 μM NaF, 100 μM PMSF, 10 mM β-glycerolphosphate, 100 μM Na3VO4, 30 mM nitrophenylphosphate, 17.5 ml of lysing buffer per 10^8 cells) and incubated on ice for 30 min. […] Cyclin D1-CDK4 was purified by means of a GST-tag on cyclin D1 and then using glutathione beads (total protein about 0.2 mg/ml). All the kinase tests were carried out in 96-well microtitre plates (Greiner PS) in a final volume of 60 μl. […] As a negative control the kinase reaction was carried out in the absence of the substrate histone H1. As a positive control the kinase reaction was carried out in the absence of a test substance. As an internal control 30 μM and 300 μM (final concentration) of the kinase inhibitor olomoucin (Alexis) were used. […] The kinase reaction is started by the addition of 10 μl of ATP mix (0.045 mM ATP, 0.5 μCi ^33P-ATP in kinase buffer) and incubated for 30 min at 30° C. and 600 rpm in a shaking incubator. After incubation the plates were placed on ice and the proteins were precipitated by the addition of 125 μl of ice-cold 5% trichloroacetic acid. After 15 min on ice the precipitates were transferred onto Packard Unifilter 96 GF/B plates with the Packard Harvester System, and collected by vacuum filtration. The precipitates were washed 4 times with dist. H2O at ambient temperature. The filter plates were then dried at 60° C. and 50 μl of scintillation liquid were added to each well (Ultima Gold, Packard). The plate was sealed up with Sealing Tape and after 1 h measured in a scintillation measuring apparatus (Micro Beta made by Wallac).

T1 sequence (P06493 whole entry): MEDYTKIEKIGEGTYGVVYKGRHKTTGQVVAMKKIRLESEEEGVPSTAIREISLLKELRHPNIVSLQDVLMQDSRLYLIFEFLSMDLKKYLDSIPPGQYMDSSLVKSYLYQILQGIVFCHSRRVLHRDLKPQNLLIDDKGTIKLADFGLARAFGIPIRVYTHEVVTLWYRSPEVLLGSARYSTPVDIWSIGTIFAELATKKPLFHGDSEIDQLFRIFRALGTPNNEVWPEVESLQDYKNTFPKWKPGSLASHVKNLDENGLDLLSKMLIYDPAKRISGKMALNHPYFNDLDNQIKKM
T1 sequence (P14635 whole entry partner): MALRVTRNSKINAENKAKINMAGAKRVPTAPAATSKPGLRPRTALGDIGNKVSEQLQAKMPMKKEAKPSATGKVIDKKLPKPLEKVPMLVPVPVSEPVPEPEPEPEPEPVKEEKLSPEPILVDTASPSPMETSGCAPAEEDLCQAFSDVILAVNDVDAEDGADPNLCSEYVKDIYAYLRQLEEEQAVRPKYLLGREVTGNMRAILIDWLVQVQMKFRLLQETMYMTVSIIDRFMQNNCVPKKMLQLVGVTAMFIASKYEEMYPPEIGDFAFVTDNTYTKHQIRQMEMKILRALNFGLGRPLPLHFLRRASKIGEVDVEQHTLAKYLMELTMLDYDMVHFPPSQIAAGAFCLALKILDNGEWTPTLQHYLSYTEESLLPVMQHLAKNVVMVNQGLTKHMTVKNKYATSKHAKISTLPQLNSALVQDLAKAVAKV

Row | IC50 [nM] | SMILES
1 | < 100 | NC1CCCC(Nc2nc(Nc3ccc4ccccc4c3)ncc2C(F)(F)F)C1 (stereo not drawn) [Example 1(039), 2-(2-naphthylamino)-4-(3-amino-cyclohexylamino)-5-trifluoromethyl-pyrimidine]
2 | < 100 | CC(=O)NC(C)(C)CNc1nc(Nc2ccc(S(=O)(=O)N3CCOCC3)cc2)ncc1C(F)(F)F [Example 1(685), N-(1,1-dimethyl-2-{2-[4-(morpholine-4-sulphonyl)-phenylamino]-5-trifluoromethyl-pyrimidin-4-ylamino}-ethyl)-acetamide]
3 | < 100 | O=C1CCCN1CCCNc1nc(Nc2ccccc2)ncc1C(F)(F)F [Example 1(031), 2-phenylamino-4-(3-(2-oxo-pyrrolidin-1-yl)-propyl-1-amino)-5-trifluoromethyl-pyrimidine]
4 | < 100 | CC(C)NC(=O)NCCCNc1nc(Nc2ccc3cnn(C)c3c2)ncc1C(F)(F)F [Example 7(036), 1-isopropyl-3-{3-[2-(1-methyl-1H-indazol-6-ylamino)-5-trifluoromethyl-pyrimidin-4-ylamino]-propyl}-urea]
5 | < 100 | CC(=O)NCCNc1nc(Nc2ccc(S(=O)(=O)N(C)C)cc2)ncc1C(F)(F)F [Example 2(047), N-{2-[2-(4-Dimethylsulphamoyl-phenylamino)-5-trifluoromethyl-pyrimidin-4-ylamino]-ethyl}-acetamide]
6 | < 100 | NCC1CCC(CNc2nc(Nc3ccccc3)ncc2C(F)(F)F)CC1 (stereo not drawn) [Example 1(033), 2-phenylamino-4-(4-aminomethyl-cyclohexylmethylamino)-5-trifluoromethyl-pyrimidine]
7 | < 100 | FC(F)(F)c1cnc(Nc2ccc(Br)cc2)nc1N1CCc2[nH]cnc2C1 [Example 1(019), 2-(4-bromo-phenylamino)-4-(1,4,6,7-tetrahydro-imidazo[4,5-c]pyridin-5-yl)-5-trifluoromethyl-pyrimidine]
8 | < 100 | O=C1CCCN1CCCNc1nc(Nc2ccc3cn[nH]c3c2)ncc1Br [Example 2(106), 1-{3-[5-Bromo-2-(1H-indazol-6-ylamino)-pyrimidin-4-ylamino]-propyl}-pyrrolidin-2-one]
9 | < 100 | CC(=O)NCCNc1nc(Nc2ccc(C(=O)Nc3ccccn3)cc2)ncc1C(F)(F)F [Example 8(024), 4-[4-(2-acetylamino-ethylamino)-5-trifluoromethyl-pyrimidin-2-ylamino]-N-pyridin-2-yl-benzamide]
10 | < 100 | O=C1CCCN1CCCNc1nc(Nc2ccc(Cl)cc2)ncc1C(F)(F)F [Example 1(011), 2-(4-chlorophenylamino)-4-(3-(2-oxo-pyrrolidin-1-yl)-propyl-1-amino)-5-trifluoromethyl-pyrimidine]
11 | < 100 | CC(=O)NCCNc1nc(Nc2ccccc2)ncc1C(F)(F)F [Example 2(062), N-[2-(2-phenylamino-5-trifluoromethylpyrimidin-4-ylamino)-ethyl]-acetamide]
12 | < 100 | O=C1CCCN1CCCNc1nc(Nc2ccc3[nH]nnc3c2)ncc1C(F)(F)F [Example 2(036), 1-{3-[2-(1H-Benzotriazol-5-ylamino)-5-trifluoromethyl-pyrimidin-4-ylamino]-propyl}-pyrrolidin-2-one]
13 | < 100 | NCCCNc1nc(Nc2ccc(C(N)=O)cc2)ncc1C(F)(F)F [Example 1(693), 4-[4-(3-aminopropylamino)-5-trifluoromethyl-pyrimidin-2-ylamino]benzamide]
14 | < 100 | CC(=O)NCCNc1nc(Nc2ccc3cn[nH]c3c2)ncc1C(F)(F)F [Example 2(044), N-{2-[2-(1H-Indazol-6-ylamino)-5-trifluoromethyl-pyrimidin-4-ylamino]-ethyl}-acetamide]
15 | < 100 | Cn1ncc2ccc(Nc3ncc(C(F)(F)F)c(NCCCNC(=O)Cc4ccccc4)n3)cc21 [Example 7(021), N-{3-[2-(1-methyl-1H-indazol-6-ylamino)-5-trifluoromethyl-pyrimidin-4-ylamino]-propyl}-2-phenyl-acetamide]
16 | < 100 | CS(=O)(=O)NCCNc1nc(Nc2ccc(Cl)c(Cl)c2)ncc1C(F)(F)F [Example 7(001), N-(2-[2-(3,4-dichloro-phenylamino)-5-trifluoromethyl-pyrimidin-4-ylamino]-ethyl)-methanesulphonamide]
17 | < 100 | CC(=O)NCCNc1nc(Nc2ccc(S(=O)(=O)N3CCN(C)CC3)cc2)ncc1C(F)(F)F [Example 2(058), N-(2-{2-[4-(4-Methyl-piperazin-1-sulphonyl)-phenylamino]-5-trifluoromethyl-pyrimidin-4-ylamino}-ethyl)-acetamide]
18 | < 100 | CC(=O)NCCNc1nc(Nc2cccc(S(=O)(=O)N(C)C)c2)ncc1C(F)(F)F [Example 1(651), N-{2-[2-(3-dimethylsulphamoyl-phenylamino)-5-trifluoromethyl-pyrimidin-4-ylamino]-ethyl}-acetamide]
19 | < 100 | CC(=O)NCCNc1nc(Nc2ccc(S(=O)(=O)N3CCOCC3)cc2)ncc1C(F)(F)F [Example 2(057), N-(2-{2-[4-(Morpholin-4-sulphonyl)-phenylamino]-5-trifluoromethyl-pyrimidin-4-ylamino}-ethyl)-acetamide]

Further lines, the compound ahead of its results:

Row | SMILES | IC50 [nM]
20 | COC(=O)NCCCNc1nc(Nc2ccc3cnn(C)c3c2)ncc1C(F)(F)F [Example 7(022)] | < 100
21 | CN(C)C1CCC(Nc2nc(Nc3ccc(Cl)c(Cl)c3)ncc2C(F)(F)F)CC1 (stereo not drawn) [Example 1(120), 2-(3,4-dichlorophenylamino)-4-(4-dimethylamino-cyclohexylamino)-5-trifluoromethyl-pyrimidine] | < 100
22 | Brc1cnc(Nc2ccc3cn[nH]c3c2)nc1N1CCc2nc[nH]c2CC1 [Example 2(141), [5-Bromo-4-(4,5,7,8-tetrahydro-1H-imidazo[4,5-d]azepin-6-yl)-pyrimidin-2-yl]-(1H-indazol-6-yl)-amine] | < 100
23 | O=[N+]([O-])c1cnc(Nc2ccc(F)c(Cl)c2)nc1N1CCc2[nH]cnc2C1 [Example 1(015), 2-(3-chloro-4-fluoro-phenylamino)-4-(1,4,6,7-tetrahydro-imidazo[4,5-c]pyridin-5-yl)-5-nitro-pyrimidine] | < 100
24 | O=C(Nc1ccccc1)c1ccc(Nc2ncc([N+](=O)[O-])c(N3CCc4[nH]cnc4C3)n2)cc1 [Example 1(026), 2-(4-phenylaminocarbonyl-phenylamino)-4-(1,4,6,7-tetrahydro-imidazo[4,5-c]pyridin-5-yl)-5-nitro-pyrimidine] | < 100
25 | CC(=O)NCC1CCCN(c2nc(Nc3ccc(Cl)c(Cl)c3)ncc2C(F)(F)F)C1 (stereo not drawn) [Example 1(040), 2-(3,4-dichloro-phenylamino)-4-(3-acetylaminomethyl-piperidin-1-yl)-5-trifluoromethyl-pyrimidine] | < 100
26 | O=[N+]([O-])c1cnc(Nc2ccc(Cl)cc2)nc1N1CCc2[nH]cnc2C1 [Example 1(010), 2-(4-chlorophenylamino)-4-(1,4,6,7-tetrahydro-imidazo[4,5-c]pyridin-5-yl)-5-nitro-pyrimidine] | < 100
27 | CC(=O)NCCNc1nc(Nc2ccc(C(=O)NCc3cc(F)cc(F)c3)cc2)ncc1C(F)(F)F [Example 8(026), 4-[4-(2-acetylamino-ethylamino)-5-trifluoromethyl-pyrimidin-2-ylamino]-N-(3,5-difluorobenzyl)-benzamide] | < 100
28 | CN(C)S(=O)(=O)c1ccc(Nc2ncc(Cl)c(N3CCc4[nH]cnc4C3)n2)cc1 [Example 2(136), 4-[5-Chloro-4-(1,4,6,7-tetrahydro-imidazo[4,5-c]pyridin-5-yl)-pyrimidin-2-ylamino]-N,N-dimethyl-phenylsulphonamide] | < 100
29 | CC(=O)N(C)CCN(C)c1nc(Nc2ccc(S(=O)(=O)N(C)C)cc2)ncc1C(F)(F)F [Example 1(690), N-(2-{[2-(4-dimethylsulphamoyl-phenylamino)-5-trifluoromethyl-pyrimidin-4-yl]-methyl-amino}-ethyl)-N-methyl-acetamide] | < 100
30 | NC(=O)c1ccc(Nc2ncc(Br)c(NCCCN3CCCC3=O)n2)cc1 [Example 1(662)] | < 100
31 | NC1CCCC(Nc2nc(Nc3cc(Cl)cc(Cl)c3)ncc2C(F)(F)F)C1 (stereo not drawn) [Example 1(020), 2-(3,5-dichloro-phenylamino)-4-(3-amino-cyclohexylamino)-5-trifluoromethyl-pyrimidine] | < 100
32 | COc1cc(C(O)CNc2nc(Nc3ccc(Cl)c(Cl)c3)ncc2C(F)(F)F)ccc1O (stereo not drawn) [Example 1(053), 2-(3,4-dichloro-phenylamino)-4-(2-(4-hydroxy-3-methoxy-phenyl)-2-hydroxy-1-ethylamino)-5-trifluoromethyl-pyrimidine] | < 100
33 | O=[N+]([O-])c1cnc(Nc2ccc(Cl)cc2)nc1N1CCCC(CCCCN2CCCC2)C1 (stereo not drawn) [Example 1(028), 2-(4-chloro-phenylamino)-4-(3-(4-(pyrrolidin-1-yl)butyl)-piperidin-1-yl)-5-nitro-pyrimidine] | < 100
